The results in this text go back to paper PMC5428013, “Peptide-Au Clusters Induced Tumor Cells Apoptosis via Targeting Glutathione Peroxidase-1: The Molecular Dynamics Assisted Experimental Studies” (Scientific Reports, 2017).

Entries after “also recorded” stand apart in the source; their conditions may differ.

Test [1] has as its system GPx-1. As to the kind of experiment: GPx-1 enzyme activity suppression in buffer. The class given is biochemical, bovine. To be noted: 10 min. The source says: The peptides (N2H-CCYGGPEEEEEVG-COOH (named P1), NH2-CCYGGPDDDEDVG-COOH (named P2) and NH2-CCYGGPEEVEEVG-COOH (named P3)) were chemically synthesized by a solid phase method (China Peptides Co. Ltd, Purity: 98%). Hydrogen tetrachloroaurate (III) (HAuCl4·4H2O) was purchased from Sinopharm Chemical Reagent Co. Ltd. Sodium hydroxide (NaOH), nitric acid (HNO3), hydrochloric acid (HCl) and hydrogen peroxide (H2O2) were purchased from Beijing Chemical Reagent Co., China. Human non-small cell lung carcinoma cells (A549 cells), Henrietta Lacks strain of cancer cells (Hela cells) and human colon adenocarcinoma cells (HCT-8 cells) were from Cancer Institute and Hospital, Chinese Academy of Medical Sciences. Fetal bovine serum (FBS) and trypsin-EDTA were obtained from Gibco, USA. Penicillin-streptomycin solution, cell culture medium DMEM and RPMI 1640 were purchased from Hyclone. Hoechst 33342, LysoTracker®Green DND-26, and CM-H2DCFDA were from Molecular Probes, USA. NucView™ 488 Caspase-3 Assay Kit was bought from Biotium, USA. 5,5′,6,6′-tetrachloro-1,1′,3,3′-tetraethylbenzimidazolocarbocyanine iodide (JC-1), cell lysis buffer for Western and IP, phenylmethanesulfonyl fluoride (PMSF) and BCA Protein Assay Kit were obtained from Beyotime Institute of Biotechnology, China. Protease inhibitor cocktail tablets were from Roche Diagnostics, GmbH, Mannheim, Germany. Cell counting kit-8 (CCK-8) reagents and Annexin V-FITC/Propidium (PI) Apoptosis Detection Kit were purchased from Dojindo Laboratories, Japan. GPx from bovine erythrocytes […] was provided by Sigma Aldrich, USA. GPx Activity Colorimetric Assay Kit was provided by Biovision, USA. Anti-GPx-1 antibody was offered by Abcam, UK. PARP antibody, caspase-3 antibody and β-actin antibody were offered by Cell Signaling Technology, USA. Amicon ultra centrifugal filter devices (Merck Millipore, MWCO: 10 kDa) were used for purification steps. Ultrapure Millipore (Mini-Q) water (18.2 MΩ) was used throughout the experiments. […]
Pure GPx (lyophilized powder, ≥300 units/mg protein) were diluted by GPx sample buffer and incubated with peptide-Au clusters (Au25P1_9, Au25P2_9 and Au25P3_9) at a series of Au dose (0, 25, 100, 400 μM) for 10 min, respectively. […] The GPx activity of untreated samples was set as 100%, and that of peptide-Au clusters treated samples were expressed as a relative percentage of untreated ones.
Figure S12. Peptide-Au clusters treated GPx-1 activity measured in buffer solution. The decrease in NADPH absorbance measured at 340 nm during the oxidation of NADPH to NADP is the indicative of GPx activity,^1, 2 which is in a dose dependent manner in tube experiments when treated with serial doses of peptide-Au clusters.

For test [2], the system named is A549 cells. The test is described as follows: Intracellular ROS level by CLSM (CM-H2DCFDA). Type of test: cell-based, human. To be noted: Au25P1_9, final Au dose 800 µM, 48 h, 5 µM CM-H2DCFDA. As to the method: (§1) For CLSM observation, cells were prior cultured on glass-bottom dishes. Au25P1_9 was added to culture medium and the final Au dose was 800 µM. After 48 h. the cells were washed three times with PBS and incubated with 5 µM CM-H2DCFDA, at 37 °C under darkness for 30 min. Before CLSM observation, the culture medium was discarded and the cells were washed three times with PBS, supplemented with fresh culture medium. Finally, ROS in cells were highlighted by green fluorescence emission of CM-H2DCFDA, imaged under Nikon Ti-e microscope with excitation at wavelengths of 488 nm. For flow cytometry analysis, cells were prior seeded on 6-well plate (at the density of 1 × 10^5 cells/well) for 24 h. Then the medium was discarded and fresh culture medium containing Au25P1_9 with Au dose at 800 μM was added. For another 48 h incubation, the cells were washed thrice with PBS, and incubated with 5 µM CM-H2DCFDA at 37 °C under darkness for 30 min. After washing with PBS, the cells were collected and suspended in ice cold PBS. Fluorescence intensity of 20,000 events was recorded using an Accuri C6 flow cytometer and the level of intracellular ROS was analyzed by Cflow software.

Test [3] concerns A549 cells. As to the kind of experiment: Intracellular ROS level by flow cytometry (CM-H2DCFDA). The class given is cell-based, human. As to conditions: 48 h. On the procedure:
as §1
Background: A flow cytometer gives signals particle by particle.

The subject of test [4] is A549 cells. The test is described as follows: Mitochondrial membrane potential assay (JC-1). The class given is cell-based, human. To be noted: 800 µM Au, 48 h, JC-1, CLSM. On the procedure:
Disruption of ΔΨm is an important step in the induction of cellular apoptosis. JC-1, a sensitive mitochondrial dye, was used to evaluate the ΔΨm. JC-1 can aggregates in the mitochondrial matrix to yield red fluorescence (λem = 590 nm) at high mitochondrial membrane potential, while JC-1 monomer has green fluorescence at low mitochondrial membrane potential (λem = 527 nm). Therefore, using JC-1 easily signals the loss of ΔΨm, an event of early cell apoptosis. After treated with 800 µM of Au25P1_9 for 48 h on glass-bottom dish, cells were stained with JC-1 at 37 °C for 20 min under darkness. Then, cells were washed twice with cold buffer solution and JC-1 fluorescence inside cells was immediately observed by CLSM.

The subject of test [5] is caspase-3. As to the kind of experiment: Caspase-3 activity assay (Nucview488, CLSM). Type of test: cell-based, human. To be noted: 800 µM Au, 48 h, 5 µM Nucview488 substrate. As to the method:
A549 cells were seeded on glass-bottom dishes for 24 h, and the Au25P1_9 was added to culture medium and final Au dose was 800 µM. A549 cells were next exposed to Au25P1_9 for 48 h. Then the cells were washed three times with PBS and incubated with 5 µM Nucview488 caspase-3 substrate (which can be cleaved by caspase-3 and release the DNA dye to stain DNA with bright green fluorescence during apoptosis) at room temperature for 30 min. Finally, cells were washed with PBS and observed by CLSM with excitation at wavelengths of 488 nm.

Turning to “CCYGGPEEEEEVG [Au25P1_9, Au25 cluster coated by nine P1 peptides (…)]”, in test [1] (Au dose 0, 25, 100, 400 μM), the “GPx-1 activity suppression in buffer” value was “exhibits the best suppression capacity for GPx-1; also recorded: the most effective candidate for suppression of GPx-1 activity in buffer and cells”. The “GPx-1 activity (relative to untreated = 100%)” value in test [1] (buffer, Au dose of 400 μM, GPx Activity Colorimetric Assay Kit, NADPH absorbance at 340 nm) worked out at 12%. In addition, the “intracellular ROS by CLSM” value in test [2] is “obvious green fluorescence, a sign of increased intracellular ROS”. In addition, the “FL1-H fluorescence intensity (ROS)” value in test [3] (Au dose 800 µM, with CM-H2DCFDA, CM-H2DCFDA only control 20088, untreated 2674) was found to be 43464. The “intracellular ROS level relative to control” value in test [3] (Au dose of 800 μM, 5 µM CM-H2DCFDA, flow cytometry, 20,000 events) is on record as ~ 210%. In addition, the “mitochondrial membrane potential change” value in test [4] is recorded as “a red to green emission shift can be observed in most cells after treated with Au25P1_9, indicating mitochondria depolarization”. In addition, the “caspase-3 activation” value in test [5] is listed as “strong Nucview488 emission”.
